Tests used:
Type in all cases: cell-based
human TLR7 = target: T1, human TLR7 (Homo sapiens, UniProt Q9NYK1); assay: TLR7 inhibition reporter assay (HEK-Blue SEAP); conditions: HEK-Blue cells overexpressing human TLR7, stimulated with gardiquimod 7.5 μM, 22 hour incubation
T1 construct: host or cells: HEK-Blue cells
T1 sequence (Q9NYK1 27-1049): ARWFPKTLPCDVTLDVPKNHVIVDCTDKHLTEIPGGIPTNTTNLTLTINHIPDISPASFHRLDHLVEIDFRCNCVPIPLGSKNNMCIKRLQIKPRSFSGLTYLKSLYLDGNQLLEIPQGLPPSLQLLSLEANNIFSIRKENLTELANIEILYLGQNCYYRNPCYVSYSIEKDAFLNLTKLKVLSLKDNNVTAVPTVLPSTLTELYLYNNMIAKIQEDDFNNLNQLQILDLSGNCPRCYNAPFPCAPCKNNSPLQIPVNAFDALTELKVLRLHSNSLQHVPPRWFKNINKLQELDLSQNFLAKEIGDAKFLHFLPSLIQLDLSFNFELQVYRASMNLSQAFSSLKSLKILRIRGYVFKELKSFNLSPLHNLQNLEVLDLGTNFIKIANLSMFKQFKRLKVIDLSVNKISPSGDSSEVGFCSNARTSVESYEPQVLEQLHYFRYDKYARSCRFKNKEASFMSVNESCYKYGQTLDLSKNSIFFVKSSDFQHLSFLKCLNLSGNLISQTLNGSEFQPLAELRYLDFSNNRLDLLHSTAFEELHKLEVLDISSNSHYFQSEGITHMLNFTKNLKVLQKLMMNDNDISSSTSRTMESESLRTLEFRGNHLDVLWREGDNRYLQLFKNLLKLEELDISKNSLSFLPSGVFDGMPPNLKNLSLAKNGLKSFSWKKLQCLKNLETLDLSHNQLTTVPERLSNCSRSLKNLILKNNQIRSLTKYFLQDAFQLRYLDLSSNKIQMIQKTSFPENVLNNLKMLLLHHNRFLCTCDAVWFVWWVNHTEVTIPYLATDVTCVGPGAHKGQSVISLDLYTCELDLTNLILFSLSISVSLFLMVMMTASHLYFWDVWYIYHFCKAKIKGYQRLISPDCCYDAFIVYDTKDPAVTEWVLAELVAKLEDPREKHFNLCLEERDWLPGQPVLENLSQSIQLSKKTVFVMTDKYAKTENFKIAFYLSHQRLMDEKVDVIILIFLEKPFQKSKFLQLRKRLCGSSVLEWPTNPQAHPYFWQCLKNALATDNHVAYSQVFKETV
Protocol: (§1) TLR7/8/9 Inhibition Reporter Assays
(§2) HEK-Blue™-cells (Invivogen) overexpressing human TLR7, TLR8 or TLR9 receptors were used for screening inhibitors of these receptors using an inducible SEAP (secreted embryonic alkaline phosphatase) reporter gene under the control of the IFN-β minimal promoter fused to five NF-κB and AP-1-binding sites. Briefly, cells are seeded into Greiner 384 well plates (15000 cells per well for TLR7, 20.000 for TLR8 and 25,000 for TLR9) and then treated with test compounds in DMSO to yield a final dose response concentration range of 0.05 nM-50 μM. After a 30 minute compound pre-treatment at room temperature, the cells are then stimulated with a TLR7 ligand (gardiquimod at a final concentration of 7.5 μM), TLR8 ligand (R848 at a final concentration of 15.9 μM) or TLR9 ligand (ODN2006 at a final concentration of 5 nM) to activate NF-κB and AP-1 which induce the production of SEAP. After a 22 hour incubation at 37° C., 5% CO2, SEAP levels are determined with the addition of HEK-Blue™ Detection reagent (Invivogen), a cell culture medium that allows for detection of SEAP, according to manufacturer's specifications. The percent inhibition is determined as the % reduction in the HEK-Blue signal present in wells treated with agonist plus DMSO alone compared to wells treated with a known inhibitor.

human TLR9 = target: T2, human TLR9 (Homo sapiens, UniProt Q9NR96); assay: TLR9 inhibition reporter assay (HEK-Blue SEAP); conditions: HEK-Blue cells overexpressing human TLR9, stimulated with ODN2006 5 nM, 22 hour incubation
T2 construct: host or cells: HEK-Blue cells
T2 sequence (Q9NR96 26-1032): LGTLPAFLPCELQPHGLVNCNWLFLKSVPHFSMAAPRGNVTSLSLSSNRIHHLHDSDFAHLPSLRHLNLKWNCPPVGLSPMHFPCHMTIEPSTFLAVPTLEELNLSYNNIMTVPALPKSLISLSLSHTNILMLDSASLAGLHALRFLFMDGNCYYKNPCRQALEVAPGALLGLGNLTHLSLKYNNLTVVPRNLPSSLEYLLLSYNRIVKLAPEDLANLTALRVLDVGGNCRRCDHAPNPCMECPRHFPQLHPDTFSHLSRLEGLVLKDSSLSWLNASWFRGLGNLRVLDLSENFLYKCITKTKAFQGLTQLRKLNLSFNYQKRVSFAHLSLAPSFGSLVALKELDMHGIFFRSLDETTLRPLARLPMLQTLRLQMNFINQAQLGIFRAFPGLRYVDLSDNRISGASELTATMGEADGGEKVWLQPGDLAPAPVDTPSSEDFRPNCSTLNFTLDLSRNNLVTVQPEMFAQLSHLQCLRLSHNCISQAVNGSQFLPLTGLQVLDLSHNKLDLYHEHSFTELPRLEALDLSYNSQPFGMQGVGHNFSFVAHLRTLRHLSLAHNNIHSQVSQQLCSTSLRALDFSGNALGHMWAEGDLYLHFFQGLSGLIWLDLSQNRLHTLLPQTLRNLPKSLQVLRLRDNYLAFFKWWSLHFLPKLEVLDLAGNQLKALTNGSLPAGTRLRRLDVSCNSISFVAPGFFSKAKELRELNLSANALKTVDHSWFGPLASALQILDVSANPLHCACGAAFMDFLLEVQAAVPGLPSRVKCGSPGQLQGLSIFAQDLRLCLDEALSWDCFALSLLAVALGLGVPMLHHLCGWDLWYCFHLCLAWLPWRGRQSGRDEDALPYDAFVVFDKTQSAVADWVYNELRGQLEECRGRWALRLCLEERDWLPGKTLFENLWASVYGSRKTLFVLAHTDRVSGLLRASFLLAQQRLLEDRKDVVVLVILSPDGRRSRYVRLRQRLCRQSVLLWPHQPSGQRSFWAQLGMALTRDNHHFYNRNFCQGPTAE
Protocol: as §1, §2

human TLR8 = target: T3, human TLR8 (Homo sapiens, UniProt Q9NR97); assay: TLR8 inhibition reporter assay (HEK-Blue SEAP); conditions: HEK-Blue cells overexpressing human TLR8, stimulated with R848 15.9 μM, 22 hour incubation
T3 construct: host or cells: HEK-Blue cells
T3 sequence (Q9NR97 27-1041): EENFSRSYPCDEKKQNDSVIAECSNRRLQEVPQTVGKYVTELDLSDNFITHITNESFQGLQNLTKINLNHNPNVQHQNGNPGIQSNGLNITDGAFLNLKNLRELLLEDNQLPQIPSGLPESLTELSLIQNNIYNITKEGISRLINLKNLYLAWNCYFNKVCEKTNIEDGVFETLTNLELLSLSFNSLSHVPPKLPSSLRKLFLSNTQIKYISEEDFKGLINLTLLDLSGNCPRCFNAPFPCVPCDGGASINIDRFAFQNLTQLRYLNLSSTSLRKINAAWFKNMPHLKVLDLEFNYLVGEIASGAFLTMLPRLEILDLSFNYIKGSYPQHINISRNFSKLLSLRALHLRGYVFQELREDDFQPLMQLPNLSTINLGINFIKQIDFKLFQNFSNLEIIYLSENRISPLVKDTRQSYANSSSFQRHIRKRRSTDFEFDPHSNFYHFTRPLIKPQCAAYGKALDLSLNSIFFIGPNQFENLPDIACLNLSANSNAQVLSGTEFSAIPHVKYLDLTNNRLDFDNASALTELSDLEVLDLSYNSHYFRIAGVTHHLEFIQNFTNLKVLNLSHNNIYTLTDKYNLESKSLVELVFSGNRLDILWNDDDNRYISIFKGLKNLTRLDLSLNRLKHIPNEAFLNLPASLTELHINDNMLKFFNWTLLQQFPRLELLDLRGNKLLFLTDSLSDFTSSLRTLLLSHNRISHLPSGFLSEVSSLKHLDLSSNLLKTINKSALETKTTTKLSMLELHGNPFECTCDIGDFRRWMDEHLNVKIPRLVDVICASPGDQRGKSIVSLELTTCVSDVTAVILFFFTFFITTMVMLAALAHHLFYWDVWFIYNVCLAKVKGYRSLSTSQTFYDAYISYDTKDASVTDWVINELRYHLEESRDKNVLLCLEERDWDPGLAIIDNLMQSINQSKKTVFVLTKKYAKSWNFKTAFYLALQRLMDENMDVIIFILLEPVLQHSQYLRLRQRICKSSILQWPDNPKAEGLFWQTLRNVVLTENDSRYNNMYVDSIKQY
Protocol: as §1, §2

## Cc1cc(-c2[nH]c3ccc(OC4CCNCC4)cc3c2C(C)C)cn2ncnc12 [Example 10, 6-(3-isopropyl-5-(piperidin-4-yloxy)-1H-indol-2-yl)-8-methyl-[1,2,4]triazolo[1,5-a] pyridine]
Human TLR7
  IC50: 0.6 nM
Human TLR9
  IC50: 653 nM
Human TLR8
  IC50: 1.6 nM

## Cc1cc(-c2[nH]c3ccc(OC4CCNCC4)cc3c2C(C)C)cn(C)c1=O [Example 11, 5-(3-isopropyl-5-(piperidin-4-yloxy)-1H-indol-2-yl)-1,3-dimethylpyridin-2(1H)-one]
Human TLR7
  IC50: 2.8 nM
Human TLR9
  IC50: 1920 nM
Human TLR8
  IC50: 2.1 nM

## Cc1cc(-c2[nH]c3ccc(OCC4CCNCC4)cc3c2C(C)C)cn2ncnc12 [Example 12, 6-(3-isopropyl-5-(piperidin-4-ylmethoxy)-1H-indol-2-yl)-8-methyl-[1,2,4] triazolo[1,5-a]pyridine]
Human TLR7
  IC50: 0.3 nM
Human TLR9
  IC50: 1100 nM
Human TLR8
  IC50: 3 nM

## Cc1cc(-c2[nH]c3ccc(OC4CCN(CC(C)(C)O)CC4)cc3c2C(C)C)cc(C)n1 [Example 21, 1-(4-((2-(2,6-dimethylpyridin-4-yl)-3-isopropyl-1H-indol-5-yl)oxy)piperidin-1-yl)-2-methylpropan-2-ol]
Human TLR7
  IC50: 3.6 nM
Human TLR9
  IC50: 518 nM
Human TLR8
  IC50: 1.1 nM

## Cc1cc(-c2[nH]c3ccc(OC4CCN(CC(C)(C)O)CC4)cc3c2C(C)C)cn2ncnc12 [Example 22, 1-(4-((3-isopropyl-2-(8-methyl-[1,2,4]triazolo[1,5-a]pyridin-6-yl)-1H-indol-5-yl)oxy)piperidin-1-yl)-2-methylpropan-2-ol]
Human TLR7
  IC50: 6.3 nM
Human TLR9
  IC50: 4410 nM
Human TLR8
  IC50: 9.2 nM

## Cc1cc(-c2[nH]c3ccc(OCC4CCCN(CC(C)(C)O)C4)cc3c2C(C)C)cc(C)n1 (stereo not drawn) [Example 23, 1-(3-(((2-(2,6-dimethylpyridin-4-yl)-3-isopropyl-1H-indol-5-yl)oxy)methyl)piperidin-1-yl)-2-methylpropan-2-ol]
Human TLR7
  IC50: 9.6 nM
Human TLR9
  IC50: 557 nM
Human TLR8
  IC50: 4.4 nM

## Cc1cc(-c2[nH]c3ccc(OCC4CCN(CC(C)(C)O)CC4)cc3c2C(C)C)cc(C)n1 [Example 24, 1-(4-(((2-(2,6-dimethylpyridin-4-yl)-3-isopropyl-1H-indol-5-yl)oxy)methyl)piperidin-1-yl)-2-methylpropan-2-ol]
Human TLR7
  IC50: 4.3 nM
Human TLR9
  IC50: 300 nM
Human TLR8
  IC50: 3 nM

## Cc1cc(-c2[nH]c3ccc(OCC4CCN(CC(C)(C)O)CC4)cc3c2C(C)C)cn(C)c1=O [Example 25, 5-(5-((1-(2-hydroxy-2-methylpropyl)piperidin-4-yl)methoxy)-3-isopropyl-1H-indol-2-yl)-1,3-dimethylpyridin-2(1H)-one]
Human TLR7
  IC50: 115 nM
Human TLR9
  IC50: 11500 nM
Human TLR8
  IC50: 14 nM

## Cc1cc(-c2[nH]c3ccc(OCC4CN(CC(C)(C)O)C4)cc3c2C(C)C)cn2ncnc12 [Example 26, 1-(3-(((3-isopropyl-2-(8-methyl-[1,2,4]triazolo[1,5-a]pyridin-6-yl)-1H-indol-5-yl)oxy)methyl)azetidin-1-yl)-2-methylpropan-2-ol]
Human TLR7
  IC50: 1.1 nM
Human TLR9
  IC50: 3160 nM
Human TLR8
  IC50: 3.5 nM

## Cc1cc(-c2[nH]c3ccc(OCC4CCN(CC(C)(C)O)CC4)cc3c2C(C)C)cn2ncnc12 [Example 27, 1-(4-(((3-isopropyl-2-(8-methyl-[1,2,4]triazolo[1,5-a]pyridin-6-yl)-1H-indol-5-yl)oxy)methyl)piperidin-1-yl)-2-methylpropan-2-ol]
Human TLR7
  IC50: 0.5 nM
Human TLR9
  IC50: 1750 nM
Human TLR8
  IC50: 1.7 nM

## Cc1c(-c2[nH]c3ccc(OCC4CN(CC(C)(C)O)C4)cc3c2C(C)C)cn2cnnc2c1C [Example 28, 1-(3-(((2-(7,8-dimethyl-[1,2,4]triazolo[4,3-a]pyridin-6-yl)-3-isopropyl-1H-indol-5-yl)oxy)methyl)azetidin-1-yl)-2-methylpropan-2-ol]
Human TLR7
  IC50: 6.1 nM
Human TLR9
  IC50: 1250 nM
Human TLR8
  IC50: 21.7 nM

## Cc1cc(-c2[nH]c3ccc(OC4CCN(C)CC4)cc3c2C(C)C)cc(C)n1 [Example 29, 2-(2,6-dimethylpyridin-4-yl)-3-isopropyl-5-((1-methylpiperidin-4-yl)oxy)-1H-indole]
Human TLR7
  IC50: 1.3 nM
Human TLR9
  IC50: 379 nM
Human TLR8
  IC50: 0.7 nM

Reference: patent US12030878B2 (BRISTOL-MYERS SQUIBB COMPANY, priority 2017, dated 2024)
